Molecules are shown by their SMILES.

The target in this assay is T1, human A2a receptor (Homo sapiens, UniProt P29274).
T1 construct: purchased Perkin-Elmer RBHA2AM400UA; host or cells: HEK293 cells (membranes)
T1 sequence (P29274 whole entry): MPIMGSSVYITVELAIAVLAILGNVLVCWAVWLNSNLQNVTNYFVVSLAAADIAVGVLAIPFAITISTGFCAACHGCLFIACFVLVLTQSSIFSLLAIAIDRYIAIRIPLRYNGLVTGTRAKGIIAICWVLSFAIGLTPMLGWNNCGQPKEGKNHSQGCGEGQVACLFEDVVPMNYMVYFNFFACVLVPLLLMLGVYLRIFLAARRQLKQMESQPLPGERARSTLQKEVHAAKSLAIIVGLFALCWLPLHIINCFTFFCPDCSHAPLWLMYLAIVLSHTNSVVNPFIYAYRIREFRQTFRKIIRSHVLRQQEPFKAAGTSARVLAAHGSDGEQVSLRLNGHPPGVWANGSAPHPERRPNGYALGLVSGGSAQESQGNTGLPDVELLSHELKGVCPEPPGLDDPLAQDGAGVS
Briefly: A2a competition binding assay, Scintillation Proximity technology. To be noted: membranes from HEK293 cells expressing human A2a receptor; Ki by Cheng-Prusoff equation. A digest of the protocol:
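SPA competition: 0.5 nM tritiated pyrazolotriazolopyrimidine ligand displaced by compound at 3000 to 0.15 nM, 1 h room temperature, human A2a HEK293 membranes pretreated with adenosine deaminase, PBS/10 mM MgCl2 buffer. CGS15943 1 μM defined non-specific binding; EC50 converted to Ki via Cheng-Prusoff.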
On to `Cc1nc(C(=O)N(C)C(C)c2ccccn2)c(N)nc1-c1ncco1` (stereo not shown) [Ex-106, 3-amino-N,6-dimethyl-5-(1,3-oxazol-2-yl)-N-(1-pyridin-2-ylethyl)pyrazine-2-carboxamide], for which the Ki was 252 nM. In other words, the sub-micromolar range. Next, `Cc1cc(F)cnc1CNC(=O)c1nc(C)c(-c2ncco2)nc1N` [Ex-107, 3-amino-N-[(5-fluoro-3-methylpyridin-2-yl)methyl]-6-methyl-5-(1,3-oxazol-2-yl)pyrazine-2-carboxamide]: 1.15 nM; `Cc1nc(C(=O)NCc2nccc(C(F)(F)F)n2)c(N)nc1-c1ncco1` [Ex-108, 3-amino-6-methyl-5-(1,3-oxazol-2-yl)-N-{[4-(trifluoromethyl)pyrimidin-2-yl]methyl}pyrazine-2-carboxamide]: 6.58 nM; `Cc1nc(C(=O)NCc2ncc(F)cn2)c(N)nc1-c1ncco1` [Ex-109, 3-amino-N-[(5-fluoropyrimidin-2-yl)methyl]-6-methyl-5-(1,3-oxazol-2-yl)pyrazine-2-carboxamide]: 15 nM.

Take `COc1ccnc(CNC(=O)c2nc(C)c(-c3ncco3)nc2N)n1` [Ex-110, 3-amino-N-[(4-methoxypyrimidin-2-yl)methyl]-6-methyl-5-(1,3-oxazol-2-yl)pyrazine-2-carboxamide]: affinity was put at a Ki of 1.32 nM. Next, `Cc1ccn2cc(CNC(=O)c3nc(C)c(-c4ncco4)nc3N)nc2c1` [Ex-111, 3-amino-6-methyl-N-[(7-methylimidazo[1,2-a]pyridin-2-yl)methyl]-5-(1,3-oxazol-2-yl)pyrazine-2-carboxamide]: 82.2 nM; `Cc1nc(C(=O)NCC(=O)c2ccc(F)cc2)c(N)nc1-c1ncco1` [Ex-112, 3-amino-N-[2-(4-fluorophenyl)-2-oxoethyl]-6-methyl-5-(1,3-oxazol-2-yl)pyrazine-2-carboxamide]: 14.5 nM; `Cc1nc(C(=O)NCCCN2CCC(F)(F)C2)c(N)nc1-c1ncco1` [Ex-113, 3-amino-N-[3-(3,3-difluoropyrrolidin-1-yl)propyl]-6-methyl-5-(1,3-oxazol-2-yl)pyrazine-2-carboxamide]: 30.2 nM. `Cc1nc(C(=O)NCc2cn(CC3CC3)cn2)c(N)nc1-c1ncco1` [Ex-114, 3-amino-N-{[1-(cyclopropylmethyl)-1H-imidazol-4-yl]methyl}-6-methyl-5-(1,3-oxazol-2-yl)pyrazine-2-carboxamide] came in with a Ki of 5.76 nM. Molecule `Cc1nc(C(=O)NC2CCC(F)(F)C2)c(N)nc1-c1ncco1` (stereo not shown) [Ex-115, 3-amino-N-(3,3-difluorocyclopentyl)-6-methyl-5-(1,3-oxazol-2-yl)pyrazine-2-carboxamide] registered a Ki of 8.74 nM. Next, `Cc1nc(C(=O)NC2CCCN(CC(F)(F)F)C2)c(N)nc1-c1ncco1` (stereo not shown) [Ex-116, 3-amino-6-methyl-5-(1,3-oxazol-2-yl)-N-[1-(2,2,2-trifluoroethyl)piperidin-3-yl]pyrazine-2-carboxamide]: 21.4 nM; `Cc1nc(C(=O)NC2CCCNC2)c(N)nc1-c1ncco1` (stereo not shown) [Ex-117, 3-amino-6-methyl-5-(1,3-oxazol-2-yl)-N-piperidin-3-ylpyrazine-2-carboxamide]: 104 nM; `Cc1nc(C(=O)N[C@H]2CC[C@H](C(F)(F)F)CC2)c(N)nc1-c1ncco1` [Ex-118, 3-amino-6-methyl-5-(1,3-oxaozl-2-yl)-N-[trans-4-(trifluoromethyl)cyclohexyl] pyrazine-2-carboxamide]: 31.7 nM. For `Cc1nc(C(=O)NCc2cccc(C(C)(C)O)n2)c(N)nc1-c1ncco1` [Ex-119], the Ki was 6.24 nM.

As for `Cc1cn(C)c(CNC(=O)c2nc(C)c(-c3ncco3)nc2N)n1` [Ex-120, 3-amino-N-[(1,4-dimethyl-1H-imidazol-2-yl)methyl]-6-methyl-5-(1,3-oxazol-2-yl)pyrazine-2-carboxamide], the inhibition constant Ki is 5.81 nM. On to `Cc1nc(C(=O)NCc2cccc(C(F)(F)F)n2)c(N)nc1-c1ncco1` [Ex-121, 3-amino-6-methyl-5-(1,3-oxazol-2-yl)-N-{[6-(trifluoromethyl)pyridin-2-yl]methyl}pyrazine-2-carboxamide], for which the Ki amounted to 3.18 nM. This Ki lies about 1.8-fold lower than the previous one.
